Assay results reported in patent US6737383B1, “Herbicidal oxadiazolidines” (priority 1999, dated 2004).

Tests used:
smallflower flatsedge = assay: Test B flood test smallflower flatsedge; type: in vivo, Cyperus difformis
Procedure, shortened: (§1)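 Each value is a visual injury score relative to controls, with 10 meaning complete control and 0 no effect. Evaluation took place twelve to sixteen days after the 2-leaf-stage plants were treated and kept in the greenhouse.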

cocklebur = assay: Test B pre/postemergence cocklebur; type: in vivo, Xanthium strumarium
Procedure, shortened: (§2)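 Test chemicals in a non-phytotoxic solvent mixture with surfactant were sprayed preemergence onto planted seeds and postemergence onto plants 2 to 18 cm tall (1- to 4-leaf stage). After twelve to sixteen days in a greenhouse, injury was visually rated against untreated controls from 0 (no effect) to 10 (complete control).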

velvetleaf = assay: Test B pre/postemergence velvetleaf; type: in vivo, Abutilon theophrasti
Procedure, shortened: as §2

bamyardgrass = assay: Test B flood test barnyardgrass; type: in vivo, Echinochloa crus-galli
Procedure, shortened: as §1

wild oat = assay: Test B pre/postemergence wild oat; type: in vivo, Avena fatua
Procedure, shortened: as §2

rape = assay: Test B pre/postemergence rape; type: in vivo, Brassica napus
Procedure, shortened: as §2

wheat = assay: Test B pre/postemergence wheat; type: in vivo, Triticum aestivum
Procedure, shortened: as §2

purple nutsedge = assay: Test B pre/postemergence purple nutsedge; type: in vivo, Cyperus rotundus
Procedure, shortened: as §2

sugar beet = assay: Test B pre/postemergence sugar beet; type: in vivo, Beta vulgaris
Procedure, shortened: as §2

blackgrass = assay: Test B pre/postemergence blackgrass; type: in vivo, Alopecurus myosuroides
Procedure, shortened: as §2

bedstraw = assay: Test B pre/postemergence bedstraw; type: in vivo, Galium aparine
Procedure, shortened: as §2

soybean = assay: Test B pre/postemergence soybean; type: in vivo, Glycine max
Procedure, shortened: as §2

pigweed = assay: Test B pre/postemergence pigweed; type: in vivo, Amaranthus retroflexus
Procedure, shortened: as §2

corn = assay: Test B pre/postemergence corn; type: in vivo, Zea mays
Procedure, shortened: as §2

crabgrass = assay: Test B pre/postemergence crabgrass; type: in vivo, Digitaria sanguinalis
Procedure, shortened: as §2

surinam grass = assay: Test B pre/postemergence surinam grass; type: in vivo, Brachiaria decumbens
Procedure, shortened: as §2

[1] = Postemergence, Rate 62 g/ha, scale 0 to 10, 0 is no effect, 10 is complete control
[2] = Rate 125 g/ha, Postemergence section (flood test species), scale 0 to 10, 0 no effect, 10 complete control
[3] = flood test, listed under Postemergence, Rate 250 g/ha, scale 0 to 10, 0 no effect, 10 complete control
[4] = Postemergence, Rate 250 g/ha, scale 0 to 10, 0 no effect, 10 complete control
[5] = Preemergence, Rate 31 g/ha, visual rating, scale 0 to 10 (0 no effect, 10 complete control)
[6] = Preemergence, Rate 125 g/ha, scale 0 to 10 (0 no effect, 10 complete control)
[7] = Preemergence, Rate 250 g/ha, scale of 0 to 10 where 0 is no effect and 10 is complete control
[8] = Rate 31 g/ha, Postemergence, scale 0 to 10
[9] = Rate 125 g/ha, Postemergence, scale 0 to 10, 0 no effect, 10 complete control
[10] = Preemergence, Rate 62 g/ha, scale 0 to 10, 0 is no effect, 10 is complete control

## Cc1cccc(C)c1-n1c(=O)on(C(=O)N(c2ccc(F)cc2F)C(C)C)c1=O [Compound 28]
Smallflower flatsedge; [1]
  S. Flatsedge plant response rating: 0
Smallflower flatsedge; [2]
  S. Flatsedge plant response rating: 0
Smallflower flatsedge; [3]
  S. Flatsedge plant response rating: 0
cocklebur; [1]
  Cocklebur plant response rating: 0
cocklebur; [4]
  Cocklebur plant response rating: 3
cocklebur; [5]
  Cocklebur plant response rating: 0
cocklebur; [6]
  Plant response rating, Cocklebur: 0
cocklebur; [7]
  Plant response rating, Cocklebur: 0
cocklebur; [8]
  Cocklebur plant response rating: 0
cocklebur; [9]
  Cocklebur plant response rating: 0
velvetleaf; [1]
  Velvetleaf plant response rating: 0
velvetleaf; [4]
  Velvetleaf plant response rating: 0
velvetleaf; [5]
  Velvetleaf plant response rating: 0
velvetleaf; [10]
  Plant response rating, Velvetleaf: 0
velvetleaf; [6]
  Plant response rating, Velvetleaf: 0
velvetleaf; [7]
  Plant response rating, Velvetleaf: 0
velvetleaf; [9]
  Velvetleaf plant response rating: 0
bamyardgrass; [1]
  Barnyardgrass plant response rating: 5
bamyardgrass; [2]
  Barnyardgrass plant response rating: 8
bamyardgrass; Rate 500 g/ha, Postemergence section of Table B, 0 to 10 scale (0 no effect, 10 complete control)
  Barnyardgrass plant response rating: 10
bamyardgrass; [3]
  Barnyardgrass plant response rating: 9
Wild oat; [1]
  Wild oats plant response rating: 0
Wild oat; [4]
  Wild oats plant response rating: 0
Wild oat; [5]
  Wild oats plant response rating: 0
Wild oat; [6]
  Plant response rating, Wild oats: 0
Wild oat; [7]
  Plant response rating, Wild oats: 3
Wild oat; [9]
  Wild oats plant response rating: 0
rape; [1]
  Rape plant response rating: 0
rape; [4]
  Rape plant response rating: 0
rape; [5]
  Rape plant response rating: 0
rape; [10]
  Plant response rating, Rape: 0
rape; [6]
  Plant response rating, Rape: 0
rape; [7]
  Plant response rating, Rape: 0
rape; [8]
  Rape plant response rating: 0
rape; [9]
  Rape plant response rating: 0
wheat; [1]
  Wheat plant response rating: 0
wheat; [4]
  Wheat plant response rating: 0
wheat; [5]
  Wheat plant response rating: 0
wheat; [10]
  Plant response rating, Wheat: 0
wheat; [6]
  Plant response rating, Wheat: 0
wheat; [7]
  Plant response rating, Wheat: 0
wheat; [9]
  Wheat plant response rating: 0
Purple nutsedge; [1]
  Nutsedge plant response rating: 0
Purple nutsedge; [4]
  Nutsedge plant response rating: 0
Purple nutsedge; [5]
  Nutsedge plant response rating: 0
Purple nutsedge; [10]
  Plant response rating, Nutsedge: 0
Purple nutsedge; [6]
  Plant response rating, Nutsedge: 0
Purple nutsedge; [7]
  Plant response rating, Nutsedge: 0
Purple nutsedge; [8]
  Nutsedge plant response rating: 0
Purple nutsedge; [9]
  Nutsedge plant response rating: 0
Sugar beet; [1]
  Sugarbeets plant response rating: 1
Sugar beet; [4]
  Sugarbeets plant response rating: 1
Sugar beet; [5]
  Sugarbeets plant response rating: 0
Sugar beet; [10]
  Plant response rating, Sugarbeets: 0
Sugar beet; [6]
  Plant response rating, Sugarbeets: 0
Sugar beet; [7]
  Plant response rating, Sugarbeets: 0
Sugar beet; [9]
  Sugarbeets plant response rating: 1
blackgrass; [1]
  Blackgrass plant response rating: 0
blackgrass; [4]
  Blackgrass plant response rating: 6
blackgrass; [5]
  Blackgrass plant response rating: 0
blackgrass; [10]
  Plant response rating, Blackgrass: 0
blackgrass; [6]
  Plant response rating, Blackgrass: 0
blackgrass; [7]
  Plant response rating, Blackgrass: 3
blackgrass; [8]
  Blackgrass plant response rating: 0
blackgrass; [9]
  Blackgrass plant response rating: 2
bedstraw; [1]
  Bedstraw plant response rating: 3
bedstraw; [4]
  Bedstraw plant response rating: 8
bedstraw; [5]
  Bedstraw plant response rating: 0
bedstraw; [10]
  Plant response rating, Bedstraw: 0
bedstraw; [6]
  Plant response rating, Bedstraw: 0
bedstraw; [7]
  Plant response rating, Bedstraw: 1
bedstraw; [8]
  Bedstraw plant response rating: 3
soybean; [1]
  Soybean plant response rating: 3
soybean; [4]
  Soybean plant response rating: 3
soybean; [5]
  Soybean plant response rating: 0
soybean; [10]
  Plant response rating, Soybean: 0
soybean; [6]
  Plant response rating, Soybean: 0
soybean; [7]
  Plant response rating, Soybean: 0
soybean; [9]
  Soybean plant response rating: 3
pigweed; [1]
  Redroot pigweed plant response rating: 0
pigweed; [4]
  Redroot pigweed plant response rating: 2
pigweed; [5]
  Redroot pigweed plant response rating: 0
pigweed; [10]
  Plant response rating, Redroot pigweed: 0
pigweed; [6]
  Plant response rating, Redroot pigweed: 0
pigweed; [7]
  Plant response rating, Redroot pigweed: 1
pigweed; [8]
  Redroot pigweed plant response rating: 0
pigweed; [9]
  Redroot pigweed plant response rating: 1
corn; [1]
  Corn plant response rating: 0
corn; [4]
  Corn plant response rating: 0
corn; [5]
  Corn plant response rating: 0
corn; [10]
  Plant response rating, Corn: 0
corn; [6]
  Plant response rating, Corn: 0
corn; [7]
  Plant response rating, Corn: 0
corn; [8]
  Corn plant response rating: 0
corn; [9]
  Corn plant response rating: 0
crabgrass; [1]
  Crabgrass plant response rating: 3
crabgrass; [4]
  Crabgrass plant response rating: 9
crabgrass; [5]
  Crabgrass plant response rating: 2
crabgrass; [10]
  Plant response rating, Crabgrass: 3
crabgrass; [6]
  Plant response rating, Crabgrass: 7
crabgrass; [7]
  Plant response rating, Crabgrass: 9
crabgrass; [8]
  Crabgrass plant response rating: 1
crabgrass; [9]
  Crabgrass plant response rating: 6
Surinam grass; [1]
  B. signalgrass plant response rating: 0
Surinam grass; [4]
  B. signalgrass plant response rating: 0
Surinam grass; [5]
  B. signalgrass plant response rating: 0
Surinam grass; [10]
  Plant response rating, B. signalgrass: 0
Surinam grass; [6]
  Plant response rating, B. signalgrass: 0
Surinam grass; [7]
  Plant response rating, B. signalgrass: 0
Surinam grass; [8]
  B. signalgrass plant response rating: 0
Surinam grass; [9]
  B. signalgrass plant response rating: 0
